Where two headings read alike, the source gives them in different places.
Tests used:
pTau = pTau assay (no method described); format: cell-based
GSK3α = GSK3α (Homo sapiens, UniProt P49840); experiment: GSK3α kinase assay (Caliper LabChip3000 mobility shift, fluoresceinated peptide substrate)
GSK3β = GSK3β (Homo sapiens, UniProt P49841); experiment: GSK3β kinase assay (Caliper LabChip3000 mobility shift, fluoresceinated peptide substrate); format: biochemical
Method: The kinase assay was performed in V-bottom 384-well plates. […] The reaction was incubated at room temperature for 20 hours and terminated by adding 45 μl of 35 mM EDTA to each sample. The reaction mixture was analyzed on the Caliper LabChip3000 (Caliper, Hopkinton, Mass.) by electrophoretic separation of the unphosphorylated substrate and phosphorylated product. […] Compounds were dissolved at 10 mM in dimethylsulfoxide (DMSO) and evaluated at eleven concentrations. IC50 values were derived by non-linear regression analysis.

[1] = 250 pM enzyme, 20 uM ATP, 1.5 uM peptide, 20 hours room temperature, first value of cell GSK3β/GSK3α, read-out: GSK3β (nM), IC50

Sequence of GSK3β (P49841 whole entry, species assumed): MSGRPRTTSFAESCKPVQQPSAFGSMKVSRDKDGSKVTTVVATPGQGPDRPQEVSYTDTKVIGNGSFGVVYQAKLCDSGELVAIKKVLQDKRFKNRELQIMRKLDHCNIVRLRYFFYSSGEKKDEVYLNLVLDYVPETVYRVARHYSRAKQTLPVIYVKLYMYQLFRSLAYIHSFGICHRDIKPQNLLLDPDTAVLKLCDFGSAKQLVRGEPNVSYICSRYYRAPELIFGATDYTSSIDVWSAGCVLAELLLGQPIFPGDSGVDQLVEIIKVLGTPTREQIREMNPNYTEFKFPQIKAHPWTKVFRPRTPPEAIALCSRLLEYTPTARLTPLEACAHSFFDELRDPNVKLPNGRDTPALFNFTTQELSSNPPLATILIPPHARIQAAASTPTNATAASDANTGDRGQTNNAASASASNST
Sequence of GSK3α (P49840 whole entry, species assumed): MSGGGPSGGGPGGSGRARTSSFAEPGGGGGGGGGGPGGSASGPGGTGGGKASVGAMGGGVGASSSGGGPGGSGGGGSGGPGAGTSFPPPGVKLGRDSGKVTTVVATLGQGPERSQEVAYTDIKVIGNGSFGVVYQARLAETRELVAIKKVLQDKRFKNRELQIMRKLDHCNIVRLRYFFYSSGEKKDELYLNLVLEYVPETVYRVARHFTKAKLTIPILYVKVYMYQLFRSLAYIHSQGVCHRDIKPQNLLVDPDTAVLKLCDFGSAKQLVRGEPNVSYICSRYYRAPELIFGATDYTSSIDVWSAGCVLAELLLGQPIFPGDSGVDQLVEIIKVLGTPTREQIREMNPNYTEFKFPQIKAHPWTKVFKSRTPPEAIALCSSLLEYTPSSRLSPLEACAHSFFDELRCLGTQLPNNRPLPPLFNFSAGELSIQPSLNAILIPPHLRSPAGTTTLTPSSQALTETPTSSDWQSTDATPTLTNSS

Compound	IC50 (pTau)	IC50 (GSK3α)	IC50 (GSK3β; [1])	IC50 (GSK3β)
O=C(Nc1cnccc1-c1ccccc1)c1ccnc(Nc2ccccn2)n1 [Example 163, N-(4-Phenylpyridin-3-yl)-2-(pyridin-2-ylamino)pyrimidine-4-carboxamide]	10000 nM	210 nM	310 nM	
O=C(Nc1cnccc1-c1ccc(F)cc1F)c1ccnc(Nc2cccnn2)n1 [Example 164, N-(4-(2,4-Difluorophenyl)pyridin-3-yl)-2-(pyridazin-3-ylamino)pyrimidine-4-carboxamide]	10000 nM	780 nM	1500 nM	
CN1CCC(Nc2nccc(C(=O)Nc3cnccc3-c3ccccc3)n2)CC1 [Example 165, 2-((1-Methylpiperidin-4-yl)amino)-N-(4-phenylpyridin-3-yl)pyrimidine-4-carboxamide]	3300 nM	110 nM	91 nM	
CCCC1(c2cc(Cl)ncc2NC(=O)c2ccnc(NC3CC3)n2)OCCO1 [Example 166, N-(6-Chloro-4-(2-propyl-1,3-dioxolan-2-yl)pyridin-3-yl)-2-(cyclopropylamino)pyrimidine-4-carboxamide]	220 nM	1.7 nM	0.73 nM	
CCCC1(c2cc(Cl)ncc2NC(=O)c2ccnc(NC3CCOCC3)n2)OCCO1 [Example 167, N-(6-Chloro-4-(2-propyl-1,3-dioxolan-2-yl)pyridin-3-yl)-2-((tetrahydro-2H-pyran-4-yl)amino)pyrimidine-4-carboxamide]	69 nM	0.47 nM	0.43 nM	
O=C(Nc1cnc(F)cc1N1CCOCC1)c1ccnc(Nc2cccc(Cl)c2)n1 [Example 168]	21 nM	0.2 nM	0.17 nM	
O=C(Nc1cnc(F)cc1N1CCOCC1)c1ccnc(Nc2ccc(Cl)c(F)c2)n1 [Example 169, 2-((4-Chloro-3-fluorophenyl)amino)-N-(6-fluoro-4-morpholinopyridin-3-yl)pyrimidine-4-carboxamide]	34 nM	0.15 nM	0.27 nM	
O=C(Nc1cnc(F)cc1N1CCOCC1)c1ccnc(Nc2ccc(Cl)cc2)n1 [Example 170]	48 nM	0.21 nM	0.34 nM	
O=C(Nc1cnc(F)cc1N1CCOCC1)c1ccnc(Nc2ccc(Cl)cc2F)n1 [Example 171, 2-((4-Chloro-2-fluorophenyl)amino)-N-(6-fluoro-4-morpholinopyridin-3-yl)pyrimidine-4-carboxamide]	59 nM	0.47 nM		0.58 nM
O=C(Nc1cnc(F)cc1N1CCOCC1)c1ccnc(Nc2cccc(OC(F)(F)F)c2)n1 [Example 172, N-(6-Fluoro-4-morpholinopyridin-3-yl)-2-((3-(trifluoromethoxy)phenyl)amino)pyrimidine-4-carboxamide]	160 nM	0.46 nM	0.89 nM	
CC(C)(C)CNc1nccc(C(=O)Nc2cnc(F)cc2N2CCOCC2)n1 [Example 173]	69 nM	0.49 nM		1.1 nM
N#Cc1ccc(Nc2nccc(C(=O)Nc3cnc(F)cc3N3CCOCC3)n2)cc1 [Example 174, 2-((4-Cyanophenyl)amino)-N-(6-fluoro-4-morpholinopyridin-3-yl)pyrimidine-4-carboxamide]	54 nM	1.6 nM	1.1 nM	
O=C(Nc1cnc(F)cc1N1CCOCC1)c1ccnc(NC2COC2)n1 [Example 175, N-(6-Fluoro-4-morpholinopyridin-3-yl)-2-(oxetan-3-ylamino)pyrimidine-4-carboxamide]	2100 nM	27 nM	46 nM	
N#Cc1ccc(Nc2nccc(C(=O)Nc3cnc(F)cc3N3CCC(F)(F)CC3)n2)cc1 [Example 176, 2-((4-Cyanophenyl)amino)-N-(4-(4,4-difluoropiperidin-1-yl)-6-fluoropyridin-3-yl)pyrimidine-4-carboxamide]	28 nM	0.28 nM		0.32 nM
O=C(Nc1cnc(F)cc1N1CCC(F)(F)CC1)c1ccnc(Nc2ccccc2)n1 [Example 177, N-(4-(4,4-Difluoropiperidin-1-yl)-6-fluoropyridin-3-yl)-2-(phenylamino)pyrimidine-4-carboxamide]	60 nM	0.41 nM	0.47 nM	
O=C(Nc1cnc(F)cc1N1CCC(F)(F)CC1)c1ccnc(Nc2ccc(Cl)cc2)n1 [Example 178, 2-((4-Chlorophenyl)amino)-N-(4-(4,4-difluoropiperidin-1-yl)-6-fluoropyridin-3-yl)pyrimidine-4-carboxamide]	69 nM	0.57 nM	0.67 nM	
O=C(Nc1cnc(F)cc1N1CCC(F)(F)CC1)c1ccnc(NCC2CC2)n1 [Example 179, 2-((Cyclopropylmethyl)amino)-N-(4-(4,4-difluoropiperidin-1-yl)-6-fluoropyridin-3-yl)pyrimidine-4-carboxamide]	94 nM	0.61 nM	0.7 nM	

Reference: patent US10752609B2, “GSK-3 inhibitors” (priority 2016, dated 2020)
